Laboratory results reported in patent US20240116985A1, “STAPLED PEPTIDES AND METHODS THEREOF” (priority 2020, published 2024).
Where two headings read alike, the source gives them in different places.

Columns and labels:
[1] = biological target: T1, full-length beta-Catenin (Uniprot ID P35222) (Homo sapiens, UniProt P35222); test: Fluorescence polarization IC50 (beta-catenin / 5FAM-TCF4 10-53 competition); format: binding; settings: fluorescence polarization; read-out: beta-Catenin FP IC50
T1 construct: 10 nM full-length beta-Catenin (Uniprot ID P35222)
T1 sequence (P35222 1-781): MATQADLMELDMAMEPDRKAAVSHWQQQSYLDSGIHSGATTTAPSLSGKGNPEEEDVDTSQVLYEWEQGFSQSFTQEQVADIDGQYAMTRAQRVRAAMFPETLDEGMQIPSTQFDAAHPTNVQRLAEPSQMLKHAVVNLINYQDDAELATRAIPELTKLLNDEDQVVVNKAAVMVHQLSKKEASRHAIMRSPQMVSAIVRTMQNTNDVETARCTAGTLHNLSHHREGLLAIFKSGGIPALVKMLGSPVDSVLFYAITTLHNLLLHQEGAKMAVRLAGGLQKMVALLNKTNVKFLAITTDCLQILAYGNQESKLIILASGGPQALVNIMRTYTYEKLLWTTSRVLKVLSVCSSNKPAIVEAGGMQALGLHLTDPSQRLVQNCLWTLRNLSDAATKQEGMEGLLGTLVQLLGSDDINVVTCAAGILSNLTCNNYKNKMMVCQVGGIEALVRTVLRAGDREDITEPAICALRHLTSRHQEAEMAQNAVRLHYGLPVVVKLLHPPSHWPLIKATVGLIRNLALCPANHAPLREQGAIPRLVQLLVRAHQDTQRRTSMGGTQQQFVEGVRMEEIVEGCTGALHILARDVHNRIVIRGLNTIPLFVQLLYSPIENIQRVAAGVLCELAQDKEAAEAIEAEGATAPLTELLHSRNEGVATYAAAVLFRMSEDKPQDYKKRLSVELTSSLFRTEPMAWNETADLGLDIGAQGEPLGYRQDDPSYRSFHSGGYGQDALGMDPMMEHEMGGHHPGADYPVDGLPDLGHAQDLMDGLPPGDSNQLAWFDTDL

[2] = biological target: T2, beta-catenin/TCF4 engagement (Homo sapiens, UniProt P35222); test: Nano-BRET target engagement assay (B-cat-Halo & TCF4-Luc in HEK293 cells); format: cell-based; settings: read-out: NanoBRET Abs IC50
T2 construct: expressed in transfected cells; host or cells: HEK293
T2 sequence (P35222 1-781): T1 sequence (P35222 1-781)

Row | IC50 [1] [nM] | IC50 ([2]; absolute IC50) [nM] | IC50 [2] [nM] | Compound
1 | 46 | > 20000 | – | CC(=O)N1CCC[C@]12CC=CCCCC1(CCCC=CCCOC(=O)N3CC[C@@](C(=O)N[C@@H](Cc4ccsc4)C(=O)N[C@@H](Cc4csc5ccccc45)C(=O)N[C@@H](CCC(N)=O)C(N)=O)(C3)NC(=O)[C@H](CC(C)C)NC(=O)[C@H](Cc3ccccc3)NC(=O)[C@H](C)NC(=O)[C@H](C)NC(=O)[C@H](CC(=O)O)NC(=O)[C@H](CC(=O)O)NC1=O)NC(=O)[C@H](CC(C)(C)C)NC(=O)[C@H](CC(=O)O)NC2=O (stereo partly drawn) [I-1815, Ac-PL3-Asp-Npg-B5-Asp-Asp-Ala-Ala-Phe-Leu-PyrS1-3Thi-BztA-Gln-NH2]
2 | 47 | 6300 | – | CC(=O)N1CCC[C@]12CC=CCCCC1(CCCC=CCCCOC(=O)N3CC[C@@](C(=O)N[C@@H](Cc4ccccc4C(F)(F)F)C(=O)N[C@@H](Cc4cccc(Cl)c4)C(=O)N[C@@H](C)C(N)=O)(C3)NC(=O)[C@H](CC(C)C)NC(=O)[C@H](Cc3ccccc3)NC(=O)[C@H](C)NC(=O)[C@H](CCC(N)=O)NC(=O)[C@H](Cc3cccc(C(=O)O)c3)NC(=O)[C@H](CC(=O)O)NC1=O)NC(=O)[C@H](CC(C)(C)C)NC(=O)[C@H](CC(=O)O)NC2=O (stereo partly drawn) [I-2227, Ac-PL3-Asp-Npg-B5-Asp-3COOHF-Gln-Ala-Phe-Leu-PyrS2-2F3MeF-3C1F-Ala-NH2]
3 | 27 | 14500 | – | CC(=O)N1CCC[C@]12CC=CCCCC1(CCCC=CCCCOC(=O)N3CC[C@@](C(=O)N[C@@H](Cc4ccsc4)C(=O)N[C@@H](Cc4c[nH]c5ccccc45)C(=O)N[C@@H](CO)C(N)=O)(C3)NC(=O)[C@H](CC(C)C)NC(=O)[C@H](Cc3ccccc3)NC(=O)[C@H](C)NC(=O)[C@H](C)NC(=O)[C@H](CC(=O)O)NC(=O)[C@H](CC(=O)O)NC1=O)NC(=O)[C@H](CC(C)(C)C)NC(=O)[C@H](CC(=O)O)NC2=O (stereo partly drawn) [I-1432, Ac-PL3-Asp-Npg-B5-Asp-Asp-Ala-Ala-Phe-Leu-PyrS2-3Thi-Trp-Ser-NH2]
4 | 29 | – | 27000 | CC(=O)N1CCC[C@]12CC=CCCCC1(CCCC=CCCCOC(=O)N3CC[C@@](C(=O)N[C@@H](Cc4ccsc4)C(=O)N[C@@H](Cc4csc5ccccc45)C(=O)N[C@@H](CCC(N)=O)C(N)=O)(C3)NC(=O)[C@H](CCO)NC(=O)[C@H](Cc3cccc(C(=O)O)c3)NC(=O)[C@H](C)NC(=O)[C@H](C)NC(=O)[C@H](Cc3c[nH]c4ccccc34)NC(=O)[C@H](CC(=O)O)NC1=O)NC(=O)[C@H](CC(C)(C)C)NC(=O)[C@H](CC(=O)O)NC2=O (stereo partly drawn) [I-2128, Ac-PL3-Asp-Npg-B5-Asp-Trp-Ala-Ala-3COOHF-Hse-PyrS2-3Thi-BztA-Gln-NH2]
5 | 10 | – | 15700 | CC(=O)N1CCC[C@]12CC=CCCCC1(CCCC=CCCCOC(=O)N3CC[C@@](C(=O)N[C@@H](Cc4ccsc4)C(=O)N[C@@H](Cc4csc5ccccc45)C(=O)N[C@@H](CCC(N)=O)C(N)=O)(C3)NC(=O)[C@H](CCC(=O)N3CCN(CCCN(C)C)CC3)NC(=O)[C@H](Cc3ccccc3)NC(=O)[C@H](C)NC(=O)[C@H](C)NC(=O)[C@H](CN(CC(=O)O)CC(F)(F)F)NC(=O)[C@H](CC(=O)O)NC1=O)NC(=O)[C@H](CC(C)(C)C)NC(=O)[C@H](CC(=O)O)NC2=O (stereo partly drawn) [I-1936, Ac-PL3-Asp-Npg-B5-Asp-TfeGA-Ala-Ala-Phe-[Me2NPrPip]GlnR-PyrS2-3Thi-BztA-Gln-NH2]
6 | 19 | 29700 | – | CCNC(=O)[C@H](CCC(N)=O)NC(=O)[C@H](Cc1csc2ccccc12)NC(=O)[C@H](Cc1ccccc1Cl)NC(=O)[C@]12CCN(C1)C(=O)OCCCC=CCCCC1(CCCC=CC[C@]3(CCCN3C(C)=O)C(=O)N[C@@H](CC(=O)O)C(=O)N[C@@H](CC(C)(C)C)C(=O)N1)C(=O)N[C@@H](CC(=O)O)C(=O)N[C@@H](CC(=O)O)C(=O)N[C@@H](C)C(=O)N[C@@H](C)C(=O)N[C@@H](Cc1ccccc1)C(=O)N[C@@H](CC(C)C)C(=O)N2 (stereo partly drawn) [I-1248, Ac-PL3-Asp-Npg-B5-Asp-Asp-Ala-Ala-Phe-Leu-PyrS2-2C1F-BztA-Gln-NHEt]
7 | 22 | 4700 | – | CC(=O)N1CCC[C@]12CC=CCCCC1(CCCC=CCCCOC(=O)N3CC[C@@](C(=O)N[C@@H](Cc4ccsc4)C(=O)N[C@@H](Cc4csc5ccccc45)C(=O)N[C@H](CCC(N)=O)C(N)=O)(C3)NC(=O)[C@H](CC(C)C)NC(=O)[C@H](Cc3ccccc3)NC(=O)[C@H](C)NC(=O)[C@H](C)NC(=O)[C@H](CC(=O)O)NC(=O)[C@H](CC(=O)O)NC1=O)NC(=O)[C@H](CC(C)(C)C)NC(=O)[C@H](CC(=O)O)NC2=O (stereo partly drawn) [I-1500, Ac-PL3-Asp-Npg-B5-Asp-Asp-Ala-Ala-Phe-Leu-PyrS2-3Thi-BztA-dGln-NH2]
8 | 34 | 5100 | – | CC(=O)N1CCC[C@]12CC=CCCCC1(CCCC=CCCCOC(=O)N3CC[C@@](C(=O)N[C@@H](Cc4ccccc4C(F)(F)F)C(=O)N[C@@H](Cc4ccc(Cl)c(Cl)c4)C(=O)N[C@@H](CO)C(N)=O)(C3)NC(=O)[C@H](CC(C)C)NC(=O)[C@H](Cc3ccccc3)NC(=O)[C@H](C)NC(=O)[C@H](C)NC(=O)[C@H](Cc3cccc(C(=O)O)c3)NC(=O)[C@H](CC(=O)O)NC1=O)NC(=O)[C@H](CC(C)(C)C)NC(=O)[C@H](CC(=O)O)NC2=O (stereo partly drawn) [I-2218, Ac-PL3-Asp-Npg-B5-Asp-3COOHF-Ala-Ala-Phe-Leu-PyrS2-2F3MeF-34C1F-Ser-NH2]
9 | 1610 | > 20000 | – | CC(=O)N1CCC[C@]12CC=CCCCCC1(CCCCC=CCCCOC(=O)N3CC[C@@](C(=O)N[C@@H](Cc4ccccc4C(F)(F)F)C(=O)N[C@@H](Cc4csc5ccccc45)C(=O)N[C@@H](C)C(N)=O)(C3)NC(=O)[C@H](CC(C)C)NC(=O)[C@H](Cc3ccccc3)NC(=O)[C@H](C)NC(=O)[C@H](CCC(N)=O)NC(=O)[C@H](Cc3cccc(C(=O)O)c3)NC(=O)[C@H](CC(=O)O)NC1=O)NC(=O)[C@H](CC(C)(C)C)NC(=O)[C@H](CC(=O)O)NC2=O (stereo partly drawn) [I-2515, Ac-PL3-Asp-Npg-B6-Asp-3COOHF-Gln-Ala-Phe-Leu-PyrS2-2F3MeF-BztA-Ala-NH2]
10 | 61 | > 20000 | – | CC(=O)N1CCC[C@]12CC=CCCCC1(CCCC=CCCCCCC[C@@](C)(C(=O)N[C@@H](Cc3ccccc3)C(=O)N[C@@H](Cc3csc4ccccc34)C(=O)N[C@@H](CCC(N)=O)C(N)=O)NC(=O)[C@H](CCC(N)=O)NC(=O)[C@H](Cc3ccccc3)NC(=O)[C@H](C)NC(=O)[C@H](C)NC(=O)[C@H](CCC(=O)O)NC(=O)[C@H](CC(=O)O)NC1=O)NC(=O)[C@H](CCO)NC(=O)[C@H](CC(=O)O)NC2=O (stereo partly drawn) [I-1544, Ac-PL3-Asp-Hse-B5-Asp-Glu-Ala-Ala-Phe-Gln-S8-Phe-BztA-Gln-NH2]
11 | 13 | 2500 | – | CC(=O)NCCCC[C@@H]1NC(=O)[C@H](Cc2ccccc2)NC(=O)[C@H](C)NC(=O)[C@H](C)NC(=O)[C@H](Cc2cccc(C(=O)O)c2)NC(=O)[C@H](CC(=O)O)NC(=O)C2(CCCC=CCCCOC(=O)N3CC[C@@](C(=O)N[C@@H](Cc4ccccc4C(F)(F)F)C(=O)N[C@@H](Cc4csc5ccccc45)C(=O)N[C@@H](CCC(=O)N4CCOCC4)C(N)=O)(C3)NC1=O)CCCC=CC[C@]1(CCCN1C(C)=O)C(=O)N[C@@H](CC(=O)O)C(=O)N[C@@H](CC(C)(C)C)C(=O)N2 (stereo partly drawn) [I-2549, Ac-PL3-Asp-Npg-B5-Asp-3COOHF-Ala-Ala-Phe-AcLys-PyrS2-2F3MeF-BztA-MorphGln-NH2]
